Patent US20080167272A1, “Thalidomide metabolites and methods of use” (Auckland Uniservices Limited, priority 2005, published 2008)

Legend:
ECV304 cells [1] = assay: MTT cytotoxicity assay; assay type: cell-based, human; settings: 18 h, 2-250/g/ml, vs untreated or DMSO-treated cultures
Procedure: The 3-(4,5-dimethylthiazol-2-yl)-2,5-diphenyl tetrazolium bromide (MTT) assay, which measures mitochondrial metabolic activity, was used to determine cell viability (Mosmann, 1983). Cells (4×10^3/well) were cultured with various concentrations of thalidomide, CG, PG and PiG in a final volume of 100 μl M199 medium (Gibco, Grand Island, N.Y., USA) supplemented with 10% foetal bovine serum ([…] streptomycin sulphate and 100 units/ml penicillin-G (Sigma, St Louis, Calif., USA) in flat-bottomed 96-well plates at 37° C. at 5% CO2 for 18 h. At the end of the incubation period, 10 μl of MTT (Sigma, St. Louis, Mo., 5 mg/ml in PBS) was added to each well, and the cells were further incubated for 2 h. The supernatants were then removed and the formazan crystals in the cells were dissolved by the addition of 100 μl of DMSO per well, and the absorbance at 590 nm was read using a plate reader. Each concentration of drug was tested in triplicate wells, and the mean ±standard error of the mean (SEM) was calculated.

Colon 38 tumours = assay: Tumour growth delay, Colon 38 tumours in mice, combination with DMXAA; assay type: in vivo
Description: Mice (C57B1/6 bred at the Animal Resources Unit, University of Auckland, New Zealand) were implanted with Colon 38 tumours, obtained originally from the Mason Research Institute (Auckland, New Zewaland) by transferring 1 mm^3 pieces of the tumour into a subcutaneous opening in the left flank of anaesthetized mice. The mice with tumours were used for growth delay experiments when tumours had reached approximately 3-5 mm in diameter. Mice were divided into 10 groups, an untreated control group, a group treated intraperitoneally (i.p.) with DMXAA (5,6-dimethylxanthenone-4-acetic acid, synthesized at the Auckland Cancer Society Research Centre—ACSRC (Auckland, New Zealand) at 25 mg/kg only, and 8 groups treated with DMXAA together with the hydrolytic thalidomide metabolites PG, PiG, CG also synthesized at the ACSRC as previously described (Lu et al, 2003), or thalidomide at 100 mg/kg, or together with CG or thalidomide at 20 mg/kg or 4 mg/kg. DMXAA was dissolved in saline at 2.5 mg/ml and injected i.p. into mice in a volume of 10 μl/g body weight. Thalidomide, PG, PiG and CG were dissolved in dimethylsulphoxide at 40, 8 or 1.6 mg/ml (for dosages of 100, 20, 4 mg/kg respectively) and injected i.p. in a volume of 2.5 μl/g body weight. Tumours were measured 2-3 times weekly after treatment and tumour volumes were calculated as 0.52×a^2×b, where a and b are the minor and major axes of the tumour. The arithmetic means and standard errors were calculated for each point, counting cured animals as having zero tumour volume, and expressed as fractions of the pre-treatment volume. Growth delay was determined as the difference in the number of days required for the tumour to reach four times the pre-treatment volume.

ECV304 cells [2] = assay: Inhibition of tube formation of ECV304 cells in Matrigel; assay type: cell-based, human
Procedure: Each well in a 24-well plate was coated with 300 μl of Matrigel (Becton Dickinson, San Jose, Calif., USA) which was allowed to solidified at 37° C. for 1 h. […] After 15-18 h of incubation at 37° C. at 5% CO2, the culture supernatant was aspirated. The cells were fixed and stained using Diff-Quick staining kit (Dade AG, Dudingen, Switzerland) according to the manufacturer's instructions. After removal of the staining solution the stained cells in each well were photographed along with a measuring ruler placed at the bottom edge of the photographing field (Olympus Camedia C-5050 professional digital camera, Olympus Optical, Tokyo, Japan). The total length of the tubes formed in the photographs was measured and divided by the area of the field (mm/mm^2).

[3] = Stability of CG in PBS at different pH (HPLC); assay type: physicochemical
Procedure: CG (50 μM) with 60 μM of phenacetin (as an internal standard) at pH 3.5, 6.8, 7.1, 7.4, 7.7 and 8 in 8 mm clear polyethylene starburst conical snap vials (Alltech, Deerfield, Ill., USA), was incubated in the autosampler (Waters Associates, Milford, Mass., USA) at 37° C. Aliquots (50 μl) of the solutions were then automatically loaded at 0, 6, 12, 18 and 24 hours after incubation onto a Waters Breeze chromatograph (Waters Associates, Milford, Mass., USA) which consisted of a Model 717plus autosampler, Model 1525 binary pump and Model 2487 dual wavelength absorbance detector.
Compounds were separated using a previously described (Chung et al, 2004) HPLC assay for thalidomide using a 100×4.6 mm stainless steel Luna 5 μm Phenylhexyl column (Phenomenex, Torrance, Calif., USA) and a mobile phase (Milli Q water:acetonitrile 10:1.3 v/v) that was pumped at a flow rate of 2 ml/min. Thalidomide and phenacetin were detected at ultraviolet wavelengths of 220 and 248 nm, respectively. The retention times of phenacetin and thalidomide and were 13 and 11 min, respectively. Data acquisition and integration was achieved using Breeze™ Software, Milford, Calif., USA. Each HPLC run included standard curves of thalidomide (0.6-100 μM) or CG (0.2-50 μM) with phenacetin (60 μM) as the internal standard in PBS. […] The r^2 of calibration curves of thalidomide was 0.9995, and for CG calibration curves was 0.9999. The intra-assay recovery was 90-110% (n=8) and the CV was 5-9% (n=4), while the inter-assay recovery was 96-104% (n=15) and the CV was 2-4% (n=6).
To construct the calibration curve, the peak-area ratios to the internal standard were plotted against thalidomide concentration and the best-fit straight line was obtained by linear regression analysis. The correlation coefficient of the calibration curves had r^2 values of greater than 0.9995. The thalidomide/phenacetin peak ratio was determined for all samples and the concentration of thalidomide in each sample was determined from the calibration curve.
The ratio of the area of the thalidomide peak or the CG peak to that of the phenacetin peak in the HPLC chromatographs then calculated and the concentration of thalidomide and CG was determined using the calibration curve. The percentage degradation of CG was calculated as: [1-(CG concentration after incubation/starting concentration)]×100.

## O=C1CCC(NC(=O)c2ccccc2C(=O)O)C(=O)N1 (centres unmarked) [CG, 2-{[(2,6-Dioxo-3-piperidinyl)amino]carbonyl}benzoic acid]
ECV304 cells [1]
  toxicity (cell viability, MTT): No toxicity was observed
Colon 38 tumours; 4 mg/kg co-administered with DMXAA 25 mg/kg, FIG. 1C
  potentiation of DMXAA-induced anti-tumour effects: neither CG nor thalidomide showed potentiation
Colon 38 tumours; 4 mg/kg co-administered with DMXAA 25 mg/kg, FIG. 2
  tumour volumes at 21 days after treatment compared with DMXAA alone: no significant difference
Colon 38 tumours; 20 mg/kg co-administered with DMXAA 25 mg/kg, FIG. 1B
  potentiation of DMXAA activity against Colon 38 tumours: more effective than thalidomide plus DMXAA or DMXAA alone
Colon 38 tumours; 20 mg/kg co-administered with DMXAA 25 mg/kg, FIG. 2
  tumour volume at 21 days after treatment compared with DMXAA alone: significantly smaller tumour volume than those treated by DMXAA alone
Colon 38 tumours; 100 mg/kg co-administered with DMXAA 25 mg/kg, FIG. 2
  tumour volumes at 21 days after treatment compared with DMXAA alone: significantly smaller tumour volumes than those treated by DMXAA alone
Colon 38 tumours; 100 mg/kg i.p. co-administered with DMXAA 25 mg/kg, FIG. 1A
  inhibition of tumour growth compared with DMXAA alone: greater inhibition of tumour growth than that of DMXAA alone
Colon 38 tumours; doses at or above 20 mg/kg, combined with DMXAA, FIGS. 1 & 2
  tumour growth inhibition compared with thalidomide: greater tumour growth inhibition than thalidomide
ECV304 cells [2]; 250 μg/ml, FIGS. 6 & 7
  inhibition of tube formation: Near complete inhibition
ECV304 cells [2]; Homo sapiens, ECV-304, lowest concentration tested, 2 μg/ml, FIG. 7
  inhibition at 2 µg/mL: 38 to 41%
ECV304 cells [2]; human cell system, FIGS. 6 & 7
  angiogenesis inhibition in vitro compared with thalidomide: as active as thalidomide
[3]; low pH
  stability in solution: unstable
[3]; pH 3.5, 37° C.
  CG remaining in the solution after 24 h: 21.5%
[3]; pH 3.5, 24 h incubation
  CG transformed into thalidomide: 42%
[3]; pH 6.8, 7.1, 7.4, 7.7 or 8
  thalidomide in CG solutions after incubation: not detected
[3]; pH 6.8, 37° C.
  CG remaining in solution after 24 h: 81.75%
[3]; pH 7.1, 37° C.
  CG remaining in solution after 24 h: 50.1%
[3]; pH 7.4, 37° C.
  CG remaining in solution after 24 h: 46.6%
[3]; pH 7.7, 37° C.
  CG remaining in the solution after 24 h: 8.6%
[3]; pH 8, 37° C.
  CG remaining in the solution after 24 h: 0%
[3]; pHs between 6.8-7.4
  stability in solution: stable
[3]; physiological conditions
  stability compared with thalidomide: more stable than thalidomide
[3]; physiological conditions, after 6 h
  CG degraded: 1.3-20%
